The record followed here is patent US7074801B1, “Nitrogen-containing condensed cyclic compound having a pyrazolyl group as a substituent group and pharmaceutical composition thereof” (Eisai Co., Ltd., priority 2001, dated 2006).

The experiment concerns STAT6. The experiment can be described thus: Inhibitory test on STAT6 activation: IL-4-induced alkali phosphatase STAT6 reporter in 293 cells stably expressing the STAT6 gene and STAT6 reporter gene. Particulars: HEK293, 1 ng/ml human recombinant IL-4, 16 hours, 293 cells with STAT6 reporter, read-out: Inhibitory activity IC50 (concentration at which the alkali phosphatase activity induced by IL-4 was inhibited by 50%). In kind it is cell-based. As for the experimental part: The inhibitory action of the present compound on activation of STAT6 was evaluated according to the following experiments.
1) Construction of a STAT6 Reporter Gene
An oligonucleotide of SEQ ID NO:1 in which three STAT6-binding regions on a human immunoglobulin germline E gene promoter had been linked was mixed with its complementary chain, thermally denatured and annealed, and 5′- and 3′-ends thereof were cleaved with restriction enzymes Kpn I (Code No. 1068A, Takara Shuzo) and Xba I (Code No. 1093A, Takara Shuzo) respectively, and the resulting fragment was cloned into a Kpn I/Xba I site of pUG-BGH-PLAP vector (described in Molecular Pharmacology, 49:860–873, 1996). To induce a basic transcriptional factor, a TK promoter region of herpes virus was cloned into an Xba I/Hind III (Code No. 1060A, Takara Shuzo) site of the pUG-BGH-PLAP vector. To obtain a stably expressing cell strain, a neomycin resistance gene (PGK-neo expression cassette) was integrated with an Sal I (Code No. 1080A, Takara Shuzo) of this vector. Cloning of the TK promoter and PGK-neo expression cassette was carried out according to Molecular Pharmacology, 49:860–873, 1996.
The underlined sites are a Kpn I recognition site and Xba I recognition site respectively. 2) Construction of an STAT6 Expression Vector
An oligonucleotide of SEQ ID NO:2 containing an initiation codon of STAT6 gene and an oligonucleotide of SEQ ID NO:3 containing a stop codon were used, and total RNA was prepared from human peripheral blood cells by using RNeasy Mini kit (Code No. 74104, OIAGEN). Then, cDNA was prepared by reverse transcription reaction using Takara RNA LA PCR kit (Code No. RR012A, Takara Shuzo) and then subjected to PCR reaction with primers of SEQ ID NOS:2 and 3, to amplify the STAT6 gene. • (SEQ ID NO:2) 5′-[…]-3′ The underlined site is an EcoR I recognition site. • (SEQ ID NO:3) 5′-[…]-3′ The underlined site is an Xho I recognition site.
The PCR product was digested with EcoR I (Code No. 1040A, Takara Shuzo) and Xho I (1094A, Takara Shuzo), and the digested fragment was isolated on an agarose gel. The isolated fragment was integrated into a vector fragment obtained by digesting pcDNA3.1 (+) (Code No. U790-20, Invitrogen) vector with EcoRI/Xho I.
3) Introduction of the Gene and Preparation of a Stably Expressing Cell Strain
Human fetal kidney-derived 293 cells (American Type Culture Collection), 3.0×10^5 cells, were spread on a Falcon tissue culture 6-well plate (Code No. 35-3046, Becton Dickinson) and cultured overnight. 1.5 μg of the prepared STAT6 reporter gene, 1.5 μg of the STAT6 gene and 20 μl of lipofectamine (Code No. 18324-012, GIBCO BRL) were mixed in 0.3 ml OPTI-MEM medium (Code No. 31985-070) and left at room temperature for 20 minutes. Thereafter, 1.2 ml OPTI-MEM medium was further added to the cells washed with OPTI-MEM medium not containing fetal bovine serum, and the cells were cultured for 2 hours. 1.5 ml medium containing fetal bovine serum was added thereto, and the cells were cultured for additional 19 hours. The medium was exchanged with a fresh one, and Geneticin (Code No. G-5013, SIGMA) was added at a concentration of 1 mg/ml, and the cells were cultured, and chemical-resistant cells were selected. The resulting chemical-resistant cells were floated in a medium containing 1 mg/ml Geneticin, then spread at a density of 0.5 cell/well on a 96-well microplate (Code No. 35-3072, Becton Dickinson) and cloned to give a clone expressing alkali phosphatase in response to IL-4.
4) Inhibitory Test on STAT6 Activation
The cells stably expressing the STAT6 gene and STAT6 reporter gene and expressing alkali phosphatase in response to IL-4 were spread at a density of 5000 cells/180 μl/well on a 96-well microplate (Code No. 35-3072, Becton Dickinson) and cultured overnight. […]
A general note: A reporter such as luciferase makes a cellular process visible.

Molecules are shown by their SMILES. Counter-ions that a name gives are not always drawn. Like-named read-outs stand apart in the source and are kept apart here.

Take `CS(=O)(=O)c1cnc(-c2ncnc3ccc(-c4c[nH]nc4-c4c(F)cccc4F)cc23)s1` [Example 899, 6-[3-(2,6-Difluorophenyl)-1H-pyrazol-4-yl]-4-(5-methylsulfonylthiazol-2-yl) quinazoline]: where the note is “Table 2”, the IC50 is less than 10 nM.
Still for that read-out and setting: the same measure for `O=S(=O)(c1ccc(-c2ncnc3ccc(-c4c[nH]nc4-c4ccc(F)cc4F)cc23)s1)C1CC1` [Example 903, 4-(5-Cyclopropanesulfonylthiophen-2-yl)-6-[3-(2,4-difluorophenyl)-1H-pyrazol-4-yl] quinazoline]: less than 10 nM; for `CN(c1ccccc1)S(=O)(=O)c1ccc(-c2ncnc3ccc(-c4c[nH]nc4-c4ccc(F)cc4)cc23)s1` [Example 856, 5-{6-[3-(4-Fluorophenyl)-1H-pyrazol-4-yl]quinazolin-4-yl}-thiophen-2-sulfonic acid methylphenylamide dihydrochloride]: 100 to 1000 nM.
With `CCS(=O)(=O)c1ccc(-c2ncnc3ccc(-c4c[nH]nc4-c4ccc(F)cc4)cc23)s1` [Example 896, 4-(5-Ethanesulfonylthiophen-2-yl)-6-[3-(4-fluorophenyl)-1H-pyrazol-4-yl] quinazoline], under “Table 2”, the IC50 was less than 10 nM.
Consider `Fc1cc(Cl)ccc1-c1nc(-c2ccc(-c3cnc4ccc(-c5cn[nH]c5)cn34)cc2)no1` [Example 697, 5-(4-Chloro-2-fluorophenyl)-3-{4-[6-(1H-4-pyrazolyl)-imidazo[1,2-a]pyridin-3-yl]-1,2,4-oxadiazole hydrochloride], for which the IC50 (Table 1) was in the range of 10 to 100 nM.
The same measure, in the same setting: the same measure for `FC(F)(F)c1cccc(N2CCN(c3ncnc4ccc(-c5cn[nH]c5)cc34)CC2)c1` [Example 265, 6-(1H-4-Pyrazolyl)-4-{4-[3-(trifluoromethyl)phenyl]-piperazin-1-yl}quinazoline trihydrochloride]: 10 to 100 nM.
Regarding `N#CCCCS(=O)(=O)c1ccc(-c2cnc3ccc(-c4c[nH]nc4-c4ccc(F)cc4)cn23)s1` [Example 626, 4-[(5-{6-[3-(4-Fluorophenyl)-1H-4-pyrazolyl]imidazo[1,2-a]pyridin-3-yl}-2-thienyl)sulfonyl]butane nitrile hydrochloride], the IC50 (Table 1) was less than 10 nM.
Still for that read-out and setting: next, `O=C1CCCN1Cc1nc(-c2cnc3ccc(-c4c[nH]nc4-c4ccccc4F)cn23)no1` [Example 596, 1-(3-{6-[3-(2-Fluorophenyl)-1H-4-pyrazolyl]-imidazo[1,2-a]-pyridin-3-yl}-[1,2,4]oxadiazol-5-ylmethyl)-pyrrolidin-2-one di-trifluoroacetate]: less than 10 nM.
In the case of `Cn1cnc(-c2ncnc3ccc(-c4c[nH]nc4-c4c(F)cccc4F)cc23)c1` [Example 911, 6-[3-(2,6-Difluorophenyl)-1H-pyrazol-4-yl]-4-(1-methyl-1H-imidazol-4-yl) quinazoline], under “Table 2”, the IC50 is less than 10 nM.
In the case of `CS(=O)(=O)c1cccc(N2CCCN(c3ncnc4ccc(-c5cn[nH]c5)cc34)CC2)c1` [Example 1002, 4-{4-(3-Methylsulfonyl)phenyl}-1,4-diazepan-1-yl}-6-(1H-4-pyrazolyl)quinazoline hydrochloride], for the setting “Table 2”, the IC50 lay in the range of 10 to 100 nM.
Consider `Fc1cc(OC2CCCC2)ccc1-c1n[nH]cc1-c1ccc2ncc(-c3noc(C4CC4)n3)n2c1` [Example 584, 6-[3-(4-Cyclopentyloxy-2-fluorophenyl)-1H-4-pyrazolyl]-3-(5-cyclopropyl-[1,2,4]oxadiazol-3-yl)-imidazo[1,2-a]-pyridine trihydrochloride], for which, under “Table 1”, the IC50 was less than 10 nM.
Still for that read-out and setting: next, `CS(=O)(=O)c1ccc(-c2n[nH]cc2-c2ccc3ncc(-c4ccc(F)cc4)n3c2)cc1` [Example 101, 3-(4-Fluorophenyl)-6-{3-[4-(methylsulfonyl)phenyl]-1H-4-pyrazolyl}imidazo[1,2-a]pyridine dihydrochloride]: 10 to 100 nM; `CN(C)Cc1nc(-c2cnc3ccc(-c4c[nH]nc4-c4ccccc4F)cn23)no1` [Example 598, (3-{6-[3-(2-Fluorophenyl)-1H-4-pyrazolyl]-imidazo[1,2-a]-pyridin-3-yl}-[1,2,4]oxadiazol-5-ylmethyl)dimethylamine tri-trifluoroacetate]: less than 10 nM.
With `O=C(Nc1ccc(F)cc1F)c1ccc(-c2ncnc3ccc(-c4cn[nH]c4)cc23)s1` [Example 869, 5-[6-(1H-Pyrazol-4-yl)quinazolin-4-yl]thiophen-2-carboxylic acid (2,4-difluorophenyl)amide dihydrochloride], where the note is “Table 2”, the IC50 lay within 10 to 100 nM.
On the same count and under the same terms, the same measure for `CNc1ccc(-c2n[nH]cc2-c2ccc3ncnc(-c4ccc(S(C)(=O)=O)s4)c3c2)cc1` [Example 883, (4-{4-[4-(5-Methylsulfonylthiophen-2-yl)quinazolin-6-yl]-1H-pyrazol-3-yl}phenyl) methylamine]: less than 10 nM; for `Cc1cccc(N2CCN(c3ncnc4ccc(-c5cn[nH]c5)cc34)CC2)c1` [Example 934, 6-(1H-Pyrazol-4-yl)-4-(4-m-tolylpiperazin-1-yl)-quinazoline tri-trifluoroacetate]: less than 10 nM.
Take `O=C(Nc1ccc(F)cc1F)c1ccc(-c2cnc3ccc(-c4cn[nH]c4)cn23)cc1F` [Example 678, N1-(2,4-Difluorophenyl)-2-fluoro-4-[6-(1H-4-pyrazolyl)-imidazo[1,2-a]pyridin-3-yl]benzamide hydrochloride]: the IC50 (Table 1) is less than 10 nM.
Same read-out and setting: the same measure for `CN(C(=O)N1CCOCC1)c1ccc(-c2n[nH]cc2-c2ccc3ncc(-c4ccccn4)n3c2)cc1` [Example 534, Morpholine-4-carboxylic acid methyl(4-[4-(3-pyridin-2-ylimidazo[1,2-a]pyridin-6-yl)-1H-pyrazol-3-yl]phenyl} amide]: less than 10 nM.
As to `COC1CCN(C(=O)c2ccc(-n3cnc4ccc(-c5c[nH]nc5-c5ccc(F)cc5)cc43)nc2)C1` (centres unmarked) [Example 725, 6-{6-[3-(4-Fluorophenyl)-1H-4-pyrazolyl]-1H-benzo[d]imidazol-1-yl}-pyridin-3-yl)-(3-methoxypyrrolidin-1-yl)methanone dihydrochloride], for the setting “Table 2”, the IC50 was less than 10 nM.
For `Cc1ccnc(NC(=O)c2ccc(-c3cnc4ccc(-c5cn[nH]c5)cn34)cc2F)c1` [Example 681, N1-(4-Methyl-2-pyridyl)-2-fluoro-4-[6-(1H-4-pyrazolyl)-imidazo[1,2-a]pyridin-3-yl]benzamide dihydrochloride], the IC50 (Table 1) is less than 10 nM.
For `CN(CC(=O)c1ccc(F)cc1)S(=O)(=O)c1ccc(-c2ncnc3ccc(-c4c[nH]nc4-c4ccc(F)cc4)cc23)s1` [Example 866, 5-{6-[3-(4-Fluorophenyl)-1H-pyrazol-4-yl]quinazolin-4-yl}thiophen-2-sulfonic acid [2-(4-fluorophenyl) 2-oxoethyl]methylamide dihydrochloride], for the setting “Table 2”, the IC50 is 10 to 100 nM.
Still for that read-out and setting: next, `CS(=O)(=O)c1ccc(OC2CCN(c3ccnc4ccc(-c5cn[nH]c5)cc34)CC2)c(F)c1` [Example 1032, 4-[4-(2-Fluoro-4-methylsulfonylphenoxy)-piperidin-1-yl]-6-(1H-pyrazol-4-yl)quinoline trihydrochloride]: 10 to 100 nM.
For `N#Cc1ccc(-c2cnc3ccc(-c4c[nH]nc4-c4ccc(F)cc4)cn23)cc1` [Example 77, 4-{6-[3-(4-Fluorophenyl)-1H-4-pyrazolyl]imidazo[1,2-a]-pyridin-3-yl}benzonitrile dihydrochloride], the IC50 (Table 1) was less than 10 nM.
